Read-outs that look alike come from different tables or passages of the source. Marks after values point to notes of the source that are not given here.
How the values were obtained:
[1] = Radiation immunodeficiency correction two months after irradiation (Chernobyl), blood parameters; format: in vivo, human; details: after IM862 therapy
Method: These patients were treated for 2 months immediately succeeding exposure to radiation caused from the Chernobyl nuclear accident. As a control, about 19 people exposed to radiation were tested for various blood parameters to establish a baseline.

[2] = Acute radiation sickness, 6 months after accident, blood parameters; format: in vivo, human; details: after therapy with IM862
Method: The patients described above in Example 47 were tested for blood parameters after 6 months of treatment immediately following exposure to the radiation caused by the Chernobyl accident.

ARD and influenza = format: in vivo, human
corneal epithelium = assay: Corneal epithelium restoration (experimental data); format: in vivo; details: IM862 IM, intranasally or ocular installation
[3] = tested on: methicillin-resistant Staphylococcal aureus
Method: Animals were inoculated intraperitoneally with 10×LD of Staphylococcal aureus suspended in brain-heart infusion broth containing 5 percent mucin. The antibiotic was administered s.c., i.p., or p.o., one hour following bacterial inoculation and deaths occurring during the subsequent three days are recorded.
Two control experiments were conducted. […] The number of survivors at 72 hours was determined. […] The number of survivors at 72 hours was again recorded.
Test mice were divided into 3 groups.

[4] = Chronic pyoderma (staphylococcal skin diseases), clinical and immunological testing
Method: IM862 was used in the form of a 0.01% solution (100 μg of the preparation in one IV tube). The preparation was administered intranasally, daily, at 100 μg for a course of 5 days.
The effectiveness of IM862 use was evaluated according to the subjective impression of the patient, clinical findings, body temperature, general clinical and immunological testing of the peripheral blood. Also, bacteriological investigation of the disease agents were conducted before and after treatment with IM862.
IM862 was administered to 59 chronic pyoderma patients. […] The patients ranged in age from 18 to 56 years old. Thirty-two men and 27 women were studied. Duration of illness was from 5 months to 16 years.
For determining the norm of T- and B-system immunity and non-specific resistance, 175 healthy donors (men & women), aged 18 to 50 years, were examined. Lymphocytes were extracted from the heparinized (25 U/ml) peripheral blood of healthy and ill persons in a ficoll-urotrast density gradient. T-lymphocytes were identified by spontaneous rosette-formation with ram erythrocytes. The T-lymphocyte subpopulations were determined with the aid of mouse monoclonal antibodies, OKT4 and OKT8, as well as with the aid of a theophylline resistance test. B-lymphocytes were determined by rosette-formation with mouse erythrocytes. The B-lymphocyte subpopulations were determined according to the presence of various classes of immunoglobulins (Ig+, IgM^+, IgG^+, IgA^+) on their surfaces with the aid of monospecific antibodies. In serum, the content of the immunoglobulins M, G, & A, and the C3-component of complement was determined by using monospecific sera to human immunoglobulins with the radial immunodiffusion method. The percentage of migration inhibition in a LMIR with PHA and ConA was determined using the hemolytic staphylococcus allergen (HSA). The phagocytic activity of the neutrophils (percent and absolute quantity of phagocytic polymorphonuclear leukocytes) and the phagocytic index (mean quantity of microorganisms absorbed by a single phagocyte) were studied with the use of a museum culture of the “Oxford 209P” strain. Other analyzed parameters were the cationic protein content (MCC) in the neutrophils, the serum immune complexes (CIC), the natural killer activity (CI) by the 3H-uridine test, and the quantity of neutrophils forming rosettes with sheep erythrocytes.

[5] = Group 2: IM862 0.01 mg/kg 3 days before inoculation, ampicillin control (0), 5 test animals, 72 hours
[6] = Group 3: IM862 0.01 mg/kg 3 days + ampicillin 100 mg/kg 1 hr, 5 test animals, 72 hours
[7] = Group 4: IM862 0.01 mg/kg 3 days + ampicillin 10 mg/kg 1 hr, 5 test animals, 72 hours
[8] = Group 5: IM862 0.01 mg/kg 3 days + ampicillin 1 mg/kg 1 hr, 5 test animals, 72 hours
[9] = Group 6: IM862 0.001 mg/kg 3 days + ampicillin 100 mg/kg 1 hr, 5 test animals, 72 hours
[10] = Group 7: IM862 0.001 mg/kg 3 days + ampicillin 10 mg/kg 1 hr, 5 test animals, 72 hours
[11] = Group 8: IM862 0.001 mg/kg 3 days + ampicillin 1 mg/kg 1 hr, 5 test animals, 72 hours
[12] = Abscessing and indurative comedones
[13] = after IM862, phagocytosis with staph. cells
[14] = after treatment with IM862 (Table 21)

Glu-Trp [IM862]
CD2, % [1]: 48.7 ± 1.8 % | CD2, abs [1]: 1.13 ± 0.08** 10^9/l | CD2-DR+, % [1]: 30.0 ± 1.2 % | CD2-DR+, abs [1]: 0.55 ± 0.06* 10^9/l | CD19, % [1]: 27 ± 4% | CD19, abs [1]: 0.51 ± 0.10** 10^9/l | E-RFC, % [1]: 27.4 ± 2.4 % | IgA [1]: 1.49 ± 0.19 g/L | IgG [1]: 10.0 ± 1.0 g/L | IgM [1]: 1.00 ± 0.10 g/L | LMI with ConA, % [1]: 90 ± 10 % | Leukocytes, abs [1]: 5.0 ± 1.2** 10^9/l | Lymphocytes, 2abs [1]: 1.9 ± 0.4* 10^9/l | B-Ig+, % [2]: 19.0 ± 1.3 % | B-Ig+, abs [2]: 0.29 ± 0.03 10^9/liter | B-IgA+, % [2]: 1.8 ± 0.3% | B-IgA+, abs [2]: 0.030 ± 0.002 10^9/liter | B-IgG+, % [2]: 6.4 ± 0.5 % | B-IgG+, abs [2]: 0.100 ± 0.007 10^9/liter | B-IgM+, % [2]: 8.8 ± 0.7% | B-IgM+, abs [2]: 0.13 ± 0.02 10^9/liter | CD2, % [2]: 49 ± 3 % | CD3, % [2]: 53.4 ± 1.8 % | CD3, abs [2]: 0.82 ± 0.04** 10^9/liter | CD4, % [2]: 32.6 ± 1.4 % | CD4, abs [2]: 0.50 ± 0.04* 10^9/liter | CD19, % [2]: 26.7 ± 2.1% | CD19, abs [2]: 0.041 ± 0.03** 10^9/liter | CDS, % [2]: 21.2 ± 1.8% | CDS, abs [2]: 0.32 ± 0.03 10^9/liter | IgA [2]: 1.8 ± 0.9 g/L | IgG [2]: 10.9 ± 1.1 g/L | IgM [2]: 1.07 ± 0.09 g/L | LMI [2]: 72.7 ± 4.5 | Lymphocytes % [2]: 30.0 ± 1.8% | Lymphocytes, abs [2]: 1.52 ± 0.12* 10^9/liter | T4/T8 [2]: 1.54 ± 0.11 | Average term of hospitalization (ARD and influenza; 1st month): 6.2 days | Need in hospitalization, % (ARD and influenza; 1st month): 27.0% | Number of temporary disablement cases/100 persons/month (ARD and influenza; 1st month): 3.8 cases/100 persons/month | Number of temporary disablement days/100 persons/month (ARD and influenza; 1st month): 24.0 days/100 persons/month | Sickness rate/100 persons/month (ARD and influenza; 1st month): 9.6 /100 persons/month | Average term of hospitalization (ARD and influenza; 2nd month): 6.2 days | Need in hospitalization, % (ARD and influenza; 2nd month): 27.1% | Number of temporary disablement cases/100 persons/month (ARD and influenza; 2nd month): 7.3 cases/100 persons/month | Number of temporary disablement days/100 persons/month (ARD and influenza; 2nd month): 48.6 days/100 persons/month | Sickness rate/100 persons/month (ARD and influenza; 2nd month): 11.3 /100 persons/month | Average term of hospitalization (ARD and influenza; 3rd month): 6.2 days | Need in hospitalization, % (ARD and influenza; 3rd month): 28.3% | Number of temporary disablement cases/100 persons/month (ARD and influenza; 3rd month): 3.4 cases/100 persons/month | Number of temporary disablement days/100 persons/month (ARD and influenza; 3rd month): 14.3 days/100 persons/month | Sickness rate/100 persons/month (ARD and influenza; 3rd month): 9.4 /100 persons/month | Average term of hospitalization (ARD and influenza; 4th month): 7.0 days | Need in hospitalization, % (ARD and influenza; 4th month): 28.3% | Number of temporary disablement cases/100 persons/month (ARD and influenza; 4th month): 3.6 cases/100 persons/month | Number of temporary disablement days/100 persons/month (ARD and influenza; 4th month): 26.3 days/100 persons/month | Sickness rate/100 persons/month (ARD and influenza; 4th month): 11.0 /100 persons/month | Average term of hospitalization (ARD and influenza; IM862 group): 6.2 days | Need in hospitalization (ARD and influenza; IM862 group): 30.6 | Number of temporary disablement cases/100 persons/month (ARD and influenza; IM862 group): 4.1 cases/100 persons/month | Number of temporary disablement days/100 persons/month (ARD and influenza; IM862 group): 26.5 days/100 persons/month | Pneumonia rate/100 persons/month (ARD and influenza; IM862 group): 0.20 /100 persons/month | Rate of lingering and complicated cases, % (ARD and influenza; IM862 group): 3.9% | Sickness rate per 100 persons/month (ARD and influenza; IM862 group): 9.8 per 100 persons/month | The same index in-patients, % (ARD and influenza; IM862 group, lingering and complicated cases): 9.8% | Index of efficiency: Average term of hospitalization (ARD and influenza; IM862 vs control): 1.4 | Index of efficiency: Need in hospitalization (ARD and influenza; IM862 vs control): 1.7 | Index of efficiency: Pneumonia rate (ARD and influenza; IM862 vs control): 2.5 | Index of efficiency: Rate of lingering and complicated cases (ARD and influenza; IM862 vs control): 3.5 | Index of efficiency: Sickness rate (ARD and influenza; IM862 vs control): 3.1 | Index of efficiency: The same index in-patients (ARD and influenza; IM862 vs control): 2.7 | Index of efficiency: temporary disablement cases (ARD and influenza; IM862 vs control): 1.7 | Index of efficiency: temporary disablement days (ARD and influenza; IM862 vs control): 2.2 | corneal epithelium (corneal epithelium): restoration and regeneration of corneal epithelium | Survivors ([3]; 0.01 mg/kg IM862 3 days prior to bacterial inoculum, no antibiotic): Four of 5 animals survived | Percent ip Survivors [3, 5]: 80% | Survivors [3, 5]: 4 | Percent ip Survivors [3, 6]: 100% | Survivors [3, 6]: 5 | Percent ip Survivors [3, 7]: 100% | Survivors [3, 7]: 5 | Percent ip Survivors [3, 8]: 100% | Survivors [3, 8]: 5 | Percent ip Survivors [3, 9]: 100% | Survivors [3, 9]: 5 | Percent ip Survivors [3, 10]: 100% | Survivors [3, 10]: 5 | Percent ip Survivors [3, 11]: 100% | Survivors [3, 11]: 5 | Considerable Improvement, number of patients [4, 12]: 1 | Recovery, number of patients [4, 12]: 4 | improvement, number of patients [4, 12]: 1 | Considerable Improvement, number of patients ([4]; Chronic abscessing pyoderma): 2 | Recovery, number of patients ([4]; Chronic abscessing pyoderma): 5 | Recovery, number of patients ([4]; Chronic furunculosis): 10 | Recovery, number of patients ([4]; Chronic recurring folliculitis-deep): 1 | Recovery, number of patients ([4]; Chronic recurring osteofolliculitis): 3 | Considerable Improvement, number of patients ([4]; Chronic ulcerative pyoderma): 2 | Considerable Improvement, number of patients ([4]; Papulous-pustulous comedones): 3 | Recovery, number of patients ([4]; Papulous-pustulous comedones): 4 | Considerable Improvement, number of patients ([4]; Total number of patients): 8 | improvement, number of patients ([4]; Total number of patients): 1 | Recovery, number of patients ([4]; Total number of patients (36 resistant to standard therapy)): 27 | CIC units ([4]; after IM862): 45.9 ± 4.9 units | Cathion proteins MCC × 10^9/l ([4]; after IM862): 1.46 ± 0.05^y | Etr-RFC/Ets-RFC ([4]; after IM862): 5.32 ± 1.00 | LMIF with ConA % ([4]; after IM862): 58.3 ± 3.9^yy % | LMIF with HSA % ([4]; after IM862): 84.9 ± 5.5^yy % | LMIF with PHA % ([4]; after IM862): 40.2 ± 3.9^y % | Lymphocytes % ([4]; after IM862): 30.8 ± 1.4% | Lymphocytes ×10^9/l ([4]; after IM862): 2.41 ± 0.14 ×10^9/l | Monocytes × 10^9/l ([4]; after IM862): 0.43 ± 0.04 × 10^9/l | NK-activity (CI) % ([4]; after IM862): 45.18 ± 2.55^y % | Neutrophils En-RFC % ([4]; after IM862): 14.7 ± 1.6% | Neutrophils En-RFC × 10^9/l ([4]; after IM862): 0.7 ± 0.11 × 10^9/l | Neutrophils × 10^9/l ([4]; after IM862): 4.54 ± 0.25 × 10^9/l | Phagocytic index % × 10^9/l ([4]; after IM862): 5.31 ± 0.20^y | T4/T8 ([4]; after IM862): 1.32 ± 011^y^ | T-helpers Etr-RFC % ([4]; after IM862): 51.7 ± 2.8^y % | T-helpers Etr-RFC ×10^9/l ([4]; after IM862): 1.28 ± 0.09^y ×10^9/l | T-helpers OKT4^+ % ([4]; after IM862): 20.3 ± 2.9% | T-helpers OKT4^+ ×10^9/l ([4]; after IM862): 0.46 ± 0.05^y ×10^9/l | T-lymphocytes E-RFC % ([4]; after IM862): 69.3 ± 1.9^y % | T-lymphocytes E-RFC ×10^9/l ([4]; after IM862): 1.68 ± 0.12^y ×10^9/l | T-suppressors Etr-RFC % ([4]; after IM862): 17.9 ± 2.4% | T-suppressors Etr-RFC ×10^9/l ([4]; after IM862): 0.45 ± 0.08 ×10^9/l | T-suppressors OKT8 % ([4]; after IM862): 17.1 ± 1.9% | T-suppressors OKT8 ×10^9/l ([4]; after IM862): 0.39 ± 0.04 ×10^9/l | Leukocytes ×10^9/l ([4]; after IM862 (Table 22)): 7.75 ± 0.33 ×10^9/l | Monocytes % ([4]; after IM862 (Table 24)): 5.65 ± 0.40% | Neutrophils % ([4]; after IM862 (Table 24)): 59.8 ± 1.6% | Phagocytic activity* % [4, 13]: 48.9 ± 2.8% | Phagocytic activity* × 10^9/l [4, 13]: 2.36 ± 0.27 × 10^9/l | B-lymphocytes (IgA^+) % ([4]; after treatment with IM862): 2.4 ± 0.3% | B-lymphocytes (IgA^+) ×10^9/l ([4]; after treatment with IM862): 0.06 ± 0.008 ×10^9/l | B-lymphocytes (IgG^+) % ([4]; after treatment with IM862): 14.7 ± 2.16% | B-lymphocytes (IgG^+) ×10^9/l ([4]; after treatment with IM862): 0.19 ± 0.023^y ×10^9/l | B-lymphocytes (IgM^+) % ([4]; after treatment with IM862): 4.4 ± 0.6% | B-lymphocytes (IgM^+) ×10^9/l ([4]; after treatment with IM862): 0.10 ± 0.01 ×10^9/l | B-lymphocytes (Ig^+) % ([4]; after treatment with IM862): 16.9 ± 1.7% | B-lymphocytes (Ig^+) ×10^9/l ([4]; after treatment with IM862): 0.34 ± 0.05 ×10^9/l | B-lymphocytes Em-RFC % ([4]; after treatment with IM862): 12.1 ± 1.5% | B-lymphocytes Em-RFC ×10^9/l ([4]; after treatment with IM862): 0.28 ± 0.04 ×10^9/l | Bacilli/nuclei % ([4]; after treatment with IM862): 3.8 ± 0.6% | Basophils % ([4]; after treatment with IM862): 0.1 ± 0.1% | Body temperature (morning) ([4]; after treatment with IM862): 36.2 ± 0.1 | ESP, mm/hr ([4]; after treatment with IM862): 11.2 ± 1.4 mm/hr | Erythrocytes ×10^12/l ([4]; after treatment with IM862): 5.2 ± 0.6 ×10^12/l | IgA ([4]; after treatment with IM862): 2.40 ± 0.18 g/L | IgG ([4]; after treatment with IM862): 15.5 ± 0.73 g/L | IgM ([4]; after treatment with IM862): 1.25 ± 0.12 g/L | Segm./nuclei % ([4]; after treatment with IM862): 61.9 ± 1.4% | Leukocytes ×10^9/l [4, 14]: 7.75 ± 0.36 ×10^9/l | Monocytes % [4, 14]: 5.7 ± 0.4% | Neutrophils % [4, 14]: 59.8 ± 1.6% | side effects / tolerance ([4]; intranasally 100 μg daily, 5 days): No side effects from its use were noted in any of the patients | relapses, number of patients ([4]; observation for 6 months after discharge): 3 patients

— patent US20030198617A1, “Pharmaceutical tryptophan containing dipeptide compositions and methods of use thereof” (priority 1993, published 2003)
